{"source": "paper PMC3707514", "about": "(Chemical research in toxicology, 2013)", "key": {"[1]": {"target": "T1, P450 2S1 (Homo sapiens, UniProt Q96SQ9)", "T1 sequence (Q96SQ9 1-504)": "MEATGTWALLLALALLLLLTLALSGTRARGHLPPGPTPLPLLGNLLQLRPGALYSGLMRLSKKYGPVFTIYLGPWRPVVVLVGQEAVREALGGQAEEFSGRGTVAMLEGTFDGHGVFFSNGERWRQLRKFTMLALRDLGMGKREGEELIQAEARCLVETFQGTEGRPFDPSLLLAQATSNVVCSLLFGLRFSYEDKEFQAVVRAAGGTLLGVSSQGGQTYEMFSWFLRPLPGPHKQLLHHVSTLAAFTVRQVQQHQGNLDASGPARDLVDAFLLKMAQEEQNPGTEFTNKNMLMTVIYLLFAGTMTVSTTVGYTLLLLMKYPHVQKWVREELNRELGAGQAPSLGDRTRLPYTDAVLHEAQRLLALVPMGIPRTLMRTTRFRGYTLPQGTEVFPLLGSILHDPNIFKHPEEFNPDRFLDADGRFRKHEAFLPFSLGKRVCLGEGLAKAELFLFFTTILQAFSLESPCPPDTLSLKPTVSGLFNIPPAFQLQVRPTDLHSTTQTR", "type": "biochemical"}, "[2]": {"target": "T1, P450 2S1", "type": "biochemical", "remark": "listed apart in the source"}, "[3]": {"target": "T1, P450 2S1", "type": "biochemical", "remark": "listed apart in the source"}, "[4]": {"target": "T1, P450 2S1", "assay": "UV-visible difference spectral titration of purified P450 2S1", "type": "binding"}}}
{"smiles": "ONc1ccc2c(c1)Cc1ccccc1-2", "note": "[2-HONH-fluorene]", "values": [{"measurement": "anaerobic reduction to 2-aminofluorene by purified P450 2S1, HPLC, minus-P450 co", "setting": "[1]", "result": "0.34 ± 0.12", "unit": "min⁻¹"}]}
{"smiles": "ONc1ccc2ccccc2c1", "note": "[2-HONH-naphthalene]", "values": [{"measurement": "anaerobic reduction to 2-naphthylamine by purified P450 2S1, HPLC, minus-P450 co", "setting": "[2]", "result": "2.4 ± 0.8", "unit": "min⁻¹"}]}
{"smiles": "ONc1ccc(-c2ccccc2)cc1", "note": "[4-HONH-biphenyl]", "values": [{"measurement": "anaerobic reduction to 4-aminobiphenyl by purified P450 2S1, HPLC, minus-P450 co", "setting": "[3]", "result": "0.18 ± 0.01", "unit": "min⁻¹"}]}
{"smiles": "Cc1cc(-c2nc3cc(F)ccc3s2)ccc1NO", "note": "[HONH-5F 203, 2-(4-hydroxylamino-3-methylphenyl)-5-fluorobenzothiazole]", "values": [{"measurement": "Kd", "setting": "[4]", "result": "30 ± 10", "unit": "µM"}]}
